Consider 10 compounds from patent US7723324B2 (priority 2003, dated 2010).

Experiment [1] addresses T1, peripheral benzodiazepine receptors (Rattus norvegicus, UniProt P16257).
T1 construct: from tissue; Rat heart membranes according to own knowledge of the cited Le Fur et al. method
Description: benzodiazepine receptor binding (test of LeFur et al.), peripheral. The protocol:
Compounds of the invention were assessed for their binding to the benzodiazepine receptor by the test of Speth et al. [Life Sci. 24, 351 (1979)] for central benzodiazepine receptors and LeFur et al. [Life Sci. 33, 449 (1983)] for peripheral receptors. The compounds were tested first at 1.00E-09, 1.0E-07 and 1.0E-05 M in single determination. […] The specific ligand binding to the receptor is defined as the difference between the total binding and the nonspecific binding determined in the presence of an excess of unlabelled ligand. In each experiment, the respective reference compound was tested concurrently with the test compounds in order to assess the assay suitability. It was tested at several concentrations (for IC50 value determination), and the data were compared with historical values. The assay was rendered valid if suitability criteria were met.
However, the invention is not limited to the compounds found in the Tables.

Experiment [2] in a line: maze test, which tests anxiety. Format: in vivo. The note with it: 10 mg/kg. The protocol: The compounds of Example 1d (also found in Example 6d), Example 22d, and Example 35d, were also tested in vivo using the maze test, which tests anxiety [Montgomery, J. Comparative and Physiological Psychology 48, 254-60 (1955); Handley et al., Naunyn-Schmiedeberg's Archives of Pharmacology 327, 1-5 (1984); Lister, Psychopharm. 92, 180-85 (1987); Pellow et al., J. Neuroscience Methods 14, 149-67 (1985); Rodgers et al., Ethology and Psychopharmacology, S. J. Cooper and C. A. Hendrie (eds), John Wiley & Sons, Ltd., 9-43 (1994); and Trullas et al., Psychopharm. 111, 323-31 (1993)]. The results of the maze test for these compounds are found in FIGS. 1a, 1b, 2a, 2b, 3a, and 3b. FIGS. 1a, 2a, and 3a are graphs of the Number of Entries in Open Arms vs. mg/kg (dose of administered compound). FIGS. 1b, 2b, and 3b plot the Percent of Time Spent in Open Arms vs. mg/kg (dose of administered compound). […] The results of the maze test are accepted by persons of skill in the art as predictive of therapeutic utility.

Bounds are passed on as bounds.

T1 sequence (P16257 whole entry): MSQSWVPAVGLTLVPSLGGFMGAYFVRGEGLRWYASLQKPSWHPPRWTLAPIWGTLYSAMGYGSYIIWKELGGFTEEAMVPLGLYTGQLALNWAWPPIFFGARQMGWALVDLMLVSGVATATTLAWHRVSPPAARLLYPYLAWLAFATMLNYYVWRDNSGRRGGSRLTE

The term IC50 denotes the concentration that inhibits the measured activity by half. High values mean a need for much substance, low ones inhibition by little substance. Compound `Cc1ccc(-c2nc3ccc(C)cn3c2CC(=O)c2cccn2C)cc1` showed an IC50 in experiment [1] (Table 1a) above 10000 nM.
In experiment [1] (Table 1a), `Cc1ccc(-c2nc3ccc(C)cn3c2CC(=O)c2c(C)nc3ccccn23)cc1` came in with a concentration for half-maximal inhibition (IC50) of 1600 nM. In other words, the single-digit micromolar range.
Consider `Cc1ccc(-c2nc3ccc(C)cn3c2CC(=O)c2cc(C)n[nH]2)cc1`, for which the concentration for half-maximal inhibition (IC50) in experiment [1] (Table 1a) is above 10000 nM.
The compound `Cc1ccc(-c2nc3ccc(C)cn3c2CC(=O)c2cc3ccccc3n2C)cc1` gave an IC50 in experiment [1] (Table 1a) of 540 nM. In other words, the sub-micromolar range.
In the case of `Cc1ccc(-c2nc3ccc(C)cn3c2CC(=O)c2cnn3c(C)cc(C)nc23)cc1`, the IC50 in experiment [1] (Table 1a) is above 10000 nM.
In experiment [1] (Table 1b), `COc1ccc(-c2nc3ccc(C)cn3c2CC(=O)c2cccn2C)cc1` had an IC50 of 1700 nM.
In experiment [1] (Table 1b), `COc1ccc(-c2nc3ccc(C)cn3c2CC(=O)c2cnn3c(C)cc(C)nc23)cc1` gave an IC50 above 10000 nM.
As for `Cc1ccc(-c2nc3ccc(C)cn3c2C2CCN(C)C2=O)cc1` (stereo not shown), the half-maximal inhibitory concentration (IC50) in experiment [1] (Table 2) is above 10000 nM.
For `Cc1ccc(-c2nc3ccc(C)cn3c2CC(=O)c2cccs2)cc1` [Example 1d, 2-(6-Methyl-2-p-tolyl-imidazo[1,2-a]pyridin-3-yl)-1-thiophen-2-yl-ethanone], the “maze test activity (Number of Entries in Open Arms, Percent of Time Spent in Open Arms)” value in experiment [2] was “statistically significant activity”.
The same measure, in the same setting: under `COc1ccsc1C(=O)Cc1c(-c2ccc(C)cc2)nc2ccc(C)cn12` [Example 22D, 1-(3-Methoxy-thiophen-2-yl)-2-(6-methyl-2-p-tolyl-imidazo[1,2-a]pyridin-3-yl)-ethanone] stands “statistically significant activity”.
